# Positions of bridges follow the written chain, without caps; N, C: chain ends. No end group written: not given here.
# How the values were obtained:
# [1] = Dynamic Light Scattering (DLS), aggregation behavior in solution; format: physicochemical
# Procedure: The aggregation behavior of peptides Pep 1, Pep 2, Pep 3, and Pep 4 in solution was determined by Dynamic Light Scattering (DLS), as shown in FIG. 1E. All synthetic peptides were approximately 100% monomeric in solution. The measured hydrodynamic radius of the peptides was similar for Pep 1 (0.82 nm), Pep 2 ([…]), Pep 3 (0.79 nm), and Pep 4 (0.86 nm).
# TLR4 signaling pathway = TLR4 signaling pathway (SEAP) in HEK cells, LPS pre-treatment then peptides; format: cell-based; conditions: LPS then peptide, 12 hours
# Procedure: HEK cells were used to investigate the ability of the peptides to reduce activation of the TLR4 signaling pathway after 12 hours of treatment.
# In the assay shown in FIG. 7A, the cells were treated with peptides for 1 hour, then LPS (100 ng/ml) was added. SEAP production was measured after 12 hours of treatment. In the assay shown in FIG. 7B, the cells were treated with LPS (100 ng/ml) for 1 hour, then the peptides were added. SEAP production was measured after 12 hours of treatment. LPS (100 ng/mL) was used as positive control and IL-10 (0.4 ng/mL) as negative control. * P<0.05; ** P<0.005; *** P<0.0005.
# [2] = tested on: T cells from allergic patients; experiment: Proliferation of T cells from allergic patients; format: cell-based; conditions: 10 μM; 24 hours; Bet v 1 positive control
# Procedure: To confirm the ability of the synthesized peptides to decrease dendritic cell activation, a composition containing Pep 1 at a concentration of 10 μM was chosen and the proliferation of T cells from allergic patients was measured after 24 hours of treatment. […] Cells were treated with Bet v 1 as a positive control, and an irrelevant peptide (IR) was used as a negative control.
# [3] = tested on: mouse basophilic leukemia cells transfected with the human FcεRI IgE receptor (hRBL); experiment: IgE-mediated release of β-hexosaminidase (basophil degranulation) in hRBL cells; format: cell-based; conditions: 1 μM; versus cells treated with Bet v1 alone; serum from seven birch pollen-allergic donors
# Procedure: The effect of Pep 1 on IgE-mediated release was studied using mouse basophilic leukemia cells transfected with the human FcεRI IgE receptor (hRBL). The hRBL cells were sensitized with serum from seven patients allergic to birch pollen. The cells were stimulated with the antigen and its interaction with immobilized IgEs resulting in the release of β-hexosaminidase.
# When cells were treated with a composition containing Pep 1 to 1 μM (FIG. 10A) or rIL10 (FIG. 10B), the amount of Bet v 1 required to induce the same amount of degranulation was higher than for cells treated with Bet v1 alone (P<0.05). Amount of rBet v 1 (ng/mL) required to induce half the release of β-hexosaminidase using serum from seven birch pollen-allergic donors after treatment with Pep 1 (A) (P<0.05) and rIL10 (B) * P<0.05.
substance,measurement,setting,value
"Pep 1: synthetic peptide with affinity to the Interleukin-10 receptor, SEQ ID No 01, with disulfide bridges (HACSAVIKSSCGGGS; disulfide 3-11 (inferred))",hydrodynamic radius,[1],0.82 nm
same,activation of the TLR4 pathway,TLR4 signaling pathway; 0.001 μM,activation of the TLR4 pathway was more significantly reduced
same,activation of the TLR4 pathway,TLR4 signaling pathway; 0.005 μM,activation of the TLR4 pathway was more significantly reduced
same,activation of the TLR4 pathway,TLR4 signaling pathway; 0.01 μM,activation of the TLR4 pathway was more significantly reduced
same,activation of the TLR4 pathway,TLR4 signaling pathway; 0.05 μM,activation of the TLR4 pathway was more significantly reduced
same,activation of the TLR4 pathway,TLR4 signaling pathway; 0.1 μM,activation of the TLR4 pathway was more significantly reduced
same,T cell proliferation,[2],decreased T cell proliferation
same,amount of Bet v 1 required to induce the same amount of degranulation,[3],higher

# From patent US20220204577A1, “Synthetic Peptides With Affinity for the Interleukin-10 Receptor, Pharmaceutical Composition and Use Thereof as Immunomodulators for Treating Autoimmune, Inflammatory or Allergic Diseases” (Universidade Federal de Uberlândia, priority 2019, published 2022)
